# Molecular target: T1, BRD9 (Homo sapiens, UniProt Q9H8M2)
# T1 sequence (Q9H8M2 1-597): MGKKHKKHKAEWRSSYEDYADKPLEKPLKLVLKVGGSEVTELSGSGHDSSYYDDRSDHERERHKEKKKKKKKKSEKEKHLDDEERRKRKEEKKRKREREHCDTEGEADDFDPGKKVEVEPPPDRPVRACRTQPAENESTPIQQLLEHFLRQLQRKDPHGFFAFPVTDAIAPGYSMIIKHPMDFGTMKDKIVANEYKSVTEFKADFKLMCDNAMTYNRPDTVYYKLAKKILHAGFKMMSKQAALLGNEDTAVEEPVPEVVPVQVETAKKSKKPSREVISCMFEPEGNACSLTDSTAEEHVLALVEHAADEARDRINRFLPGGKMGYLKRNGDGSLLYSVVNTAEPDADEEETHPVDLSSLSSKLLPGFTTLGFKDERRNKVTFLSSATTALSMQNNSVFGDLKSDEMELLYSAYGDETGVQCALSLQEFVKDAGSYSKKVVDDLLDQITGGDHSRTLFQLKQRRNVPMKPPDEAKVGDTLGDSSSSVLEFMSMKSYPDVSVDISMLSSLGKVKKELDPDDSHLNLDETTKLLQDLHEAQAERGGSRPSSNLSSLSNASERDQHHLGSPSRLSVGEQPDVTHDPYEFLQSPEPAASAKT
# Assay: Degradation of BRD9 (IF), immunofluorescence in MV4-11 cells, 24 hours (Assay Protocol 2)
# Format: cell-based
# Set-up: A suspension of MV4-11 cells (ATCC CRL-9591) was prepared; host or cells: MV4-11
# Conditions: BRD9 degradation; for DC50: Assay protocol 2, read-out: DC50; for Dmax: MV4-11, Assay protocol 2, read-out: Dmax
# Summary of the method: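 MV4-11 cells treated with compound 24 h at 37° C., then fixed, permeabilised and immunostained for BRD9 (anti-BRD9 E4Q3F, Alexa 647 secondary, Hoechst counterstain). High-content imaging quantified nuclear BRD9 signal; % BRD9 remaining normalised to DMSO and 100 nM CFT-8634 controls.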
SMILES,DC50 [nM],Dmax [%]
COc1cc(-c2cn(C)c(=O)c(C)c2C)cc(OC)c1CN1CCN(Cc2cccc3c2CCN(C(=O)/C(C#N)=C/C(C)(C)F)[C@H]3C)C2(CC2)C1 (mixture of isomers) [Compound C30],25 to 1000,40 to 70
"COc1cc(-c2cn(C)c(=O)c(C)c2C)ccc1OC1CCN(Cc2cccc3c2CCN(C(=O)/C(C#N)=C/C(C)(C)C)C3C(C)C)CC1 (mixture of isomers) [Compound C32, (E/Z)-2-(1-isopropyl-5-((4-(2-methoxy-4-(1,4,5-trimethyl-6-oxo-1,6-dihydropyridin-3-yl)phenoxy)piperidin-1-yl)methyl)-1,2,3,4-tetrahydroisoquinoline-2-carbonyl)-4,4-dimethylpent-2-enenitrile]",25 to 1000,70 to 75
"COc1cc(-c2cn(C)c(=O)c(C)c2C)cc(OC)c1CN1CCN(C(=O)c2cccc3c2CCN(C(=O)/C(C#N)=C/C(C)(C)C)C3C)C2(CC2)C1 (mixture of isomers) [Compound C43, (E/Z)-2-(5-(7-(2,6-dimethoxy-4-(1,4,5-trimethyl-6-oxo-1,6-dihydropyridin-3-yl)benzyl)-4,7-diazaspiro[2.5]octane-4-carbonyl)-1-methyl-1,2,3,4-tetrahydroisoquinoline-2-carbonyl)-4,4-dimethylpent-2-enenitrile]",25 to 1000,> 75
"COc1cc(-c2cn(C)c(=O)c(C)c2C)cc(OC)c1CN1CCC2(CC1)CN(c1cccc3c1CCN(C(=O)/C(C#N)=C/C(C)(C)C)[C@@H]3C)C2 (mixture of isomers) [Compound C45, (E/Z)-2-(5-(7-(2,6-dimethoxy-4-(1,4,5-trimethyl-6-oxo-1,6-dihydropyridin-3-yl)benzyl)-2,7-diazaspiro[3.5]nonan-2-yl)-1-methyl-1,2,3,4-tetrahydroisoquinoline-2-carbonyl)-4,4-dimethylpent-2-enenitrile]",10 to 25,40 to 70
COc1cc(-c2cn(C)c(=O)c(C)c2C)cc(OC)c1CN1CCC(N(C)c2cccc3c2CCN(C(=O)/C(C#N)=C/C(C)(C)C)C3C)C(F)(F)C1 (mixture of isomers) [Compound C57],25 to 1000,40 to 70
"COc1cc(-c2cn(C)c(=O)c(C)c2C)cc(OC)c1CN1CCCN(c2ccc3c(c2)[C@H](C)N(C(=O)/C(C#N)=C/C(C)(C)CF)CC3)CC1 (mixture of isomers) [Compound C68, (E/Z)-2-(7-(4-(2,6-dimethoxy-4-(1,4,5-trimethyl-6-oxo-1,6-dihydropyridin-3-yl)benzyl)-1,4-diazepan-1-yl)-1-methyl-1,2,3,4-tetrahydroisoquinoline-2-carbonyl)-5-fluoro-4,4-dimethylpent-2-enenitrile]",25 to 1000,40 to 70
"COc1cc(-c2cn(C)c(=O)c(C)c2C)cc(OC)c1CN1CCCN(c2ccc3c(c2)[C@@H](C)N(C(=O)/C(C#N)=C/C(C)(C)CF)CC3)CC1 (mixture of isomers) [Compound C69, (E/Z)-2-(7-(4-(2,6-dimethoxy-4-(1,4,5-trimethyl-6-oxo-1,6-dihydropyridin-3-yl)benzyl)-1,4-diazepan-1-yl)-1-methyl-1,2,3,4-tetrahydroisoquinoline-2-carbonyl)-5-fluoro-4,4-dimethylpent-2-enenitrile]",10 to 25,40 to 70
"COc1cc(-c2cn(C)c(=O)c(C)c2C)ccc1OC1CCN(Cc2cccc3c2CCN(C(=O)/C(C#N)=C/C(C)(C)C)C3C)C2(CC2)C1 (mixture of isomers) [Compound C72, (E/Z)-2-(5-((7-(2-methoxy-4-(1,4,5-trimethyl-6-oxo-1,6-dihydropyridin-3-yl)phenoxy)-4-azaspiro[2.5]octan-4-yl)methyl)-1-methyl-1,2,3,4-tetrahydroisoquinoline-2-carbonyl)-4,4-dimethylpent-2-enenitrile]",25 to 1000,> 75
COc1cc(-c2cn(C)c(=O)c(C)c2C)ccc1CC1CCN(Cc2cccc3c2CCN(C(=O)/C(C#N)=C/C(C)(C)C)C3C)C(C)(C)C1 (mixture of isomers) [Compound C74],25 to 1000,> 75
"COc1cc(-c2cn(C)c(=O)c(C)c2C)cc(OC)c1CN1CCN(S(=O)(=O)c2cccc3c2CCN(C(=O)/C(C#N)=C\C(C)(C)C)C3C)CC1 (mixture of isomers) [Compound C75, (E/Z)-2-(5-((4-(2,6-dimethoxy-4-(1,4,5-trimethyl-6-oxo-1,6-dihydropyridin-3-yl)benzyl)piperazin-1-yl)sulfonyl)-1-methyl-1,2,3,4-tetrahydroisoquinoline-2-carbonyl)-4,4-dimethylpent-2-enenitrile]",25 to 1000,> 75
"COc1cc(-c2cn(C)c(=O)c(C)c2C)cc(OC)c1CN1CCCN(Cc2cccc3c2CCN(C(=O)/C(C#N)=C/C(C)(C)CF)[C@@H]3C(C)C)CC1 (mixture of isomers) [Compound C84, (E/Z)-2-(5-((4-(2,6-dimethoxy-4-(1,4,5-trimethyl-6-oxo-1,6-dihydropyridin-3-yl)benzyl)-1,4-diazepan-1-yl)methyl)-1-isopropyl-1,2,3,4-tetrahydroisoquinoline-2-carbonyl)-5-fluoro-4-dimethylpent-2-enenitrile]",1.25 to 10,> 75

# The remaining lines, values ahead:
DC50 [nM],Dmax [%],SMILES
< 1.25,> 75,"COc1cc(-c2cn(C)c(=O)c(C)c2C)cc(OC)c1CN1CCN(Cc2cccc3c2CCN(C(=O)/C(C#N)=C/C(C)(C)CF)C3C(C)C)C2(CC2)C1 (mixture of isomers) [Compound C24, (E/Z)-2-(5-((7-(2,6-dimethoxy-4-(1,4,5-trimethyl-6-oxo-1,6-dihydropyridin-3-yl)benzyl)-4,7-diazaspiro[2.5]octan-4-yl)methyl)-1-isopropyl-1,2,3,4-tetrahydroisoquinoline-2-carbonyl)-5-fluoro-4,4-dimethylpent-2-enenitrile]"
1.25 to 10,> 75,"COc1cc(-c2cn(C)c(=O)c(C)c2C)cc(OC)c1CN1CCN(Cc2cccc3c2CCN(C(=O)/C(C#N)=C/C(C)(C)CF)C3C(C)C)CC12CC2 (mixture of isomers) [Compound C25, (E/Z)-2-(5-((4-(2,6-dimethoxy-4-(1,4,5-trimethyl-6-oxo-1,6-dihydropyridin-3-yl)benzyl)-4,7-diazaspiro[2.5]octan-7-yl)methyl)-1-isopropyl-1,2,3,4-tetrahydroisoquinoline-2-carbonyl)-5-fluoro-4,4-dimethylpent-2-enenitrile]"
1.25 to 10,70 to 75,COc1cc(-c2cn(C)c(=O)c(C)c2C)cc(OC)c1CN1CCN(Cc2cccc3c2CCN(C(=O)/C(C#N)=C/c2cccc(Br)n2)C3C)C2(CC2)C1 (mixture of isomers) [Compound C29]
1.25 to 10,> 75,"COc1cc(-c2cn(C)c(=O)c(C)c2C)cc(OC)c1CN1CCC2(CC1)CCN(c1cccc3c1CCN(C(=O)/C(C#N)=C/C(C)(C)CF)[C@@H]3C)C2 (mixture of isomers) [Compound C48, (E/Z)-2-(5-(8-(2,6-dimethoxy-4-(1,4,5-trimethyl-4-oxo-1,6-dihydropyridin-3-yl)benzyl)-2,8-diazaspiro[4.5]decan-2-yl)-1-methyl-1,2,3,4-tetrahydroisoquinoline-2-carbonyl)-5-fluoro-4,4-dimethylpent-2-enenitrile]"
1.25 to 10,70 to 75,COc1cc(-c2cn(C)c(=O)c(C)c2C)cc(OC)c1CN1CCC(Cc2cccc3c2CCN(C(=O)/C(C#N)=C/C(C)(C)CF)C3C(C)C)CC1 (mixture of isomers) [Compound C80]
